For one data set, the target named is T1, 5-HT2C receptor (Homo sapiens, UniProt P28335).
T1 construct: host or cells: U2OS
Briefly: Human 5-HT2C functional assay (beta-arrestin2 recruitment, U2OS_HTR2C_β-Arrestin cells). The class given is cell-based. The note with it: for EC50: Potency (EC50 5-HT2C) in functional assay, agonism, read-out: EC50 5-HT2C; for Emax: relative efficacy vs maximal effect induced by 5-HT (defined as 100%). As to the method:
1. Human 5-HT2C Functional Assay
The functional activity of compounds of formula I was assayed by incubation with U2OS_HTR2C_β-Arrestin cells (DiscoverX, 93-0289C3) to induce beta-arrestin2 recruitment to the 5-HT2C receptor. The agonist-induced recruitment and proximity of the receptor and beta-arrestin2 leads to complementation and formation of active β-galactosidase. The enzyme complementation results in enzyme activity, which is measured following the termination of the agonist incubation using DiscoveRx's detection reagent, which contains a chemiluminescent substrate which produces a high intensity signal. Cells were plated and a medium-change to a 1% serum containing medium was performed 24 h later. The next day, test compounds were added and incubated for 1.5 h before addition of detection reagent.
The response produced was measured and compared with the response produced by 10 [mu]M 5-HT or the maximal effect induced by 5-HT (defined as 100%) to which it was expressed as a percentage response (relative efficacy).

A further data set concerns the target T2, human 5-HT2A receptor (Homo sapiens, UniProt P28223).
T2 construct: expressed in transfected cells; host or cells: CHO-K1
Briefly: Human 5-HT2A functional assay (calcium mobilisation in CHO-K1 cells, FLIPR). It counts as cell-based. The note with it: based on agonism: EC50 5-HT2A/EC50 5-HT2C. As for the experimental part:
2. Human 5-HT2A Functional Assay
Functional activity on the 5-HT2A receptor was determined by testing the effect of the compounds I on calcium mobilisation in CHO-K1 cells, stably transfected with human 5-HT2A receptor. Cells were seeded into sterile black 384-well plates with clear bottom at 25,000 cells/well in a volume of 25 μl and grown for 5-6 hours at 37° C., in 5% CO2 in tissue culture medium (“Ultra CHO” by LONZA), containing 1% dialysed FCS and 50 μg/ml gentamicin (Invitrogen). After this incubation, medium was replaced by a serum free version of the same tissue culture medium followed by incubation overnight at 37° C. and in 5% CO2. Cells were then loaded with a fluorescent calcium-sensitive dye in the presence of 0.07% probenecid for an hour at 37° C., according to the manufacturer's protocol (Ca5-Assay Kit, Molecular Devices), followed by an additional 60 min incubation at room temperature. Serial compound dilutions (final concentrations of 10^−10 to 10^−5M, prepared in HBSS+50 mM HEPES) were first added to the cells alone (“first addition” to assess agonism on the 5-HT2A receptor), then after 8 min, serotonin was added to the same wells at a final concentration of 3×10^−8 M (“second addition” to see potential antagonistic effect) and the maximal calcium response was determined using a FLIPR® Tetra instrument (Molecular Devices) in each of the two steps. The relative efficacy of the compounds was calculated as a percentage of the maximal effect induced by serotonin alone (defined as 100%). To determine EC50/IC50 values, concentration-response curves were fitted using a four-parameter logistic equation (IDBS Biobookml). Kb values were calculated from IC50 values, according to Cheng & Prusoff
(In general: Calcium flux is commonly read through the fluorescence of an indicator in the cells.)

Data set [1] can be described thus: Metabolic stability in human liver microsomes, unbound intrinsic clearance. It counts as in vitro ADME. The note with it: pH 7.4, unbound intrinsic clearance (human), Clint unbound = Cl int/fu mic, read-out: Cl int, mic unb. (h). As to the method: Samples of the tested compounds (0.5 μM) were preincubated together with human liver microsomes (0.25 mg of microsomal protein/mL) in 0.05 M potassium phosphate buffer of pH 7.4 in microtiter plates at 37° C. for 5 minutes. The reaction was started by adding NADPH (1.0 mM). After 0, 5, 10, 15, 20 and 30 minutes, an aliquot was removed, the reaction was cooled and stopped by adding twice the amount of quench solution consisting of acetonitrile/methanol 1:1, and containing 0.2 μM carbutamide as internal standard. The samples were frozen until analyzed. The remaining concentration of undegraded test substance was determined by liquid chromatography-tandem mass spectrometry (LC-MS/MS). The half-life (t1/2) was determined from the gradient of the ratio of the signal of (test substance/internal standard)/unit time plot, allowing the calculation of the half-life of the test substance, assuming first order kinetics, from the decrease in the concentration of the compound with time. The microsomal clearance (mClint) was calculated as follows: mClint=((ln(2)/t ½)/Microsomal Protein Concentration (mg/ml))*1000, leading to the unit of uL/min/mg. The scaled clearance (mClin_scaled) was calculated as mCLint_scaled=m CLint*(Microsomal Yield (mg/kg BW))/1000000*60, leading to the units L/h/kg. The Microsomal Yield is defined by the specifics of the used microsomes. Calculations were modified from references: Di, The Society for Biomolecular Screening, 2003, 453-462; Obach, D M D, 1999 vol 27. N 11, 1350-1359.
Calculation of Unbound Intrinsic Clearance
C1int unbound=C1 int/fu mic
Background: Microsomes from liver hold many membrane-bound enzymes, among them those of drug oxidation.

The target of another data set is T3, human 5-HT2B receptor (Homo sapiens, UniProt P41595).
T3 construct: expressed in transfected cells; host or cells: CHO-FlpIn
T3 sequence (P41595 whole entry): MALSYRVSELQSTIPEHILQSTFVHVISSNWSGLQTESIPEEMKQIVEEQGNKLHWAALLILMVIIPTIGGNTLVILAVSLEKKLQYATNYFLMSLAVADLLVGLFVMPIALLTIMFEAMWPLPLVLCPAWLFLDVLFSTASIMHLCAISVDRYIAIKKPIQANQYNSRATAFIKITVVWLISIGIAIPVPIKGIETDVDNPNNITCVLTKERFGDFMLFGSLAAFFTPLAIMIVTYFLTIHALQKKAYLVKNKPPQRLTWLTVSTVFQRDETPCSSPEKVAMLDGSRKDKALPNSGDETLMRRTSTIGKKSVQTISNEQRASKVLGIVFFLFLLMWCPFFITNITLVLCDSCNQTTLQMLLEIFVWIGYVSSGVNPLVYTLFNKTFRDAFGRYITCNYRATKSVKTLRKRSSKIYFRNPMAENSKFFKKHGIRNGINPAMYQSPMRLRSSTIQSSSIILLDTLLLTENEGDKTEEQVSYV
Nature of the data set: Human 5-HT2B functional assay (calcium mobilisation in CHO-FlpIn cells, FLIPR). It counts as cell-based. The note with it: based on agonism: EC50 5-HT2B/EC50 5-HT2C. As to the method: 3. Human 5-HT2B Functional Assay
Functional activity on the 5-HT2B receptor was determined by testing the effect of the compounds I on calcium mobilisation in CHO-FlpIn cells, stably transfected with human 5-HT2B receptor. Cells were seeded into sterile black 384-well plates with clear bottom at 30,000 cells/well in a volume of 25 μl and grown overnight at 37° C., in 5% CO2 in tissue culture medium (“CHO-S-SFM II” by Invitrogen), containing 1% dialysed FCS and 50 μg/ml gentamicin (Invitrogen). On the next morning, medium was replaced by a serum free version of the same tissue culture medium for a further incubation for 4 hours at 37° C. and in 5% CO2. Cells were then loaded with a fluorescent calcium-sensitive dye in the presence of 0.07% probenecid for an hour at 37° C., according to the manufacturer's protocol (Ca5-Assay Kit, Molecular Devices), followed by an additional 60 min incubation at room temperature. Serial compound dilutions (final concentrations of 10^−10 to 10^−5M, prepared in HBSS+50 mM HEPES) were first added to the cells alone (“first addition” to assess agonism on the 5-HT2B receptor), then after 8 min, serotonin was added to the same wells at a final concentration of 10^−8 M (“second addition” to see potential antagonistic effect) and the maximal calcium response was determined using a FLIPR® Tetra instrument (Molecular Devices) in each of the two steps. The relative efficacy of the compounds was calculated as a percentage of the maximal effect induced by serotonin alone (defined as 100%). To determine EC50/IC50 values, concentration-response curves were fitted using a four-parameter logistic equation (IDBS Biobookml). Kb values were calculated from IC50 values, according to Cheng & Prusoff

Structures can show the parent of a compound that is named as a salt. Where two headings read alike, the source gives them in different places.

As a reminder, the EC50 is the concentration giving half of the maximal effect. In general, Emax refers to the greatest response seen or fitted, relative to the assay's reference.

T1 sequence (P28335 33-458): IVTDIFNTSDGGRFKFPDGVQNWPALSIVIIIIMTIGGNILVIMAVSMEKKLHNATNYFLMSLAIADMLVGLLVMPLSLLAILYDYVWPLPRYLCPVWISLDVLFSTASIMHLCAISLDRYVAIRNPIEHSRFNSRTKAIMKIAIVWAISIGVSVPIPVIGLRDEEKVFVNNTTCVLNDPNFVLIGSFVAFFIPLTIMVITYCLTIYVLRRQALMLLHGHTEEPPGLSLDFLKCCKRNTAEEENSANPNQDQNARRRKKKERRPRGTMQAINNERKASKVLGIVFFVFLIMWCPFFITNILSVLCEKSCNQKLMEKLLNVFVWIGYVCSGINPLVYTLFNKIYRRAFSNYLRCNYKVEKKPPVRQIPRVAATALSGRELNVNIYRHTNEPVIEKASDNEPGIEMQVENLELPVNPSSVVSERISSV
T1 sequence (P32121 whole entry partner): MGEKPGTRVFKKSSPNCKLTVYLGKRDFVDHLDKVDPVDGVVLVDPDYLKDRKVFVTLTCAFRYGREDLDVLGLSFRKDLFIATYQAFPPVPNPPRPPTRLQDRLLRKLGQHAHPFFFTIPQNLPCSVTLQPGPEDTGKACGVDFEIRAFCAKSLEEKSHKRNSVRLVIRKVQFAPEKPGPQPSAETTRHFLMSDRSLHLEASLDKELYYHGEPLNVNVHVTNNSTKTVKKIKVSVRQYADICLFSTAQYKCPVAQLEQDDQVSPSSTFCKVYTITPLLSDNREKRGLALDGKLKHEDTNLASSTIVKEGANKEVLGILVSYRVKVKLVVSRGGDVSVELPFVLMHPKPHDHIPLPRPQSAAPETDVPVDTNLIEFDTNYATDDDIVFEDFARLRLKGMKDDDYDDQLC
T2 sequence (P28223 whole entry): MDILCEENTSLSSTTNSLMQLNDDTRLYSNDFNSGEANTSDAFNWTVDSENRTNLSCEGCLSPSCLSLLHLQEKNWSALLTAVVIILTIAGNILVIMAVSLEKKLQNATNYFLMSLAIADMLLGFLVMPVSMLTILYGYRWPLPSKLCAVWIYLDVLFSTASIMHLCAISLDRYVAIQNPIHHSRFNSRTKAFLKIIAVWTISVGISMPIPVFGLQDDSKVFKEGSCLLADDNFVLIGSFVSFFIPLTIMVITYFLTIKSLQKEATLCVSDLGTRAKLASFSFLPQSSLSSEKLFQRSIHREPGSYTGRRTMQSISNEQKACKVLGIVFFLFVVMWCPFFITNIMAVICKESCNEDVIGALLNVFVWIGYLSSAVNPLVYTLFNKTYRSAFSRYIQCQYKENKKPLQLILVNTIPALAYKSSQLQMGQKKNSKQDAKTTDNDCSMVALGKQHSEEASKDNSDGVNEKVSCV

In the case of `Cl.OC[C@@H]1C[C@@H]2CNCCN2c2cccc(Cl)c2O1` [Example 14, [(4aR,6S)-8-Chloro-2,3,4,4a,5,6-hexahydro-1H-pyrazino[2,1-d][1,5]benzoxazepin-6-yl]methanol hydrochloride], on 5-HT2C receptor, the EC50 lay within 20 to 200 nM and the Emax is above 70%. Moreover, at human 5-HT2A receptor, the “Selectivity over 5-HT2A” value was “+++ (>100)”. Also, in data set [1] (microsomes), the CLint scaled at 0.5 μM was below 83.3 mL/min/kg.
For `OC[C@@H]1C[C@@H]2CNCCN2c2cc(F)cc(Cl)c2O1` [Example 17, [(4aR,6S)-8-Chloro-10-fluoro-2,3,4,4a,5,6-hexahydro-1H-pyrazino[2,1-d][1,5]benzoxazepin-6-yl]methanol hydrochloride], at 5-HT2C receptor, the EC50 was below 20 nM and the Emax is above 70%. The CLint scaled at 0.5 μM in data set [1] (liver microsomes) was below 83.3 mL/min/kg.
Consider `Cl.OC[C@@H]1C[C@@H]2CNCCN2c2c(F)c(F)cc(Cl)c2O1` [Example 20, [(4aR,6S)-8-Chloro-10,11-difluoro-2,3,4,4a,5,6-hexahydro-1H-pyrazino[2,1-d][1,5]benzoxazepin-6-yl]methanol hydrochloride], for which, on 5-HT2C receptor, the EC50 lay in the range of 20 to 200 nM and the Emax is above 70%. The “Selectivity over 5-HT2A” value on human 5-HT2A receptor was “+++ (>100)”. Further, the CLint scaled at 0.5 μM in data set [1] (liver microsomes) was below 83.3 mL/min/kg.
The corresponding values for `Cl.OC[C@@H]1C[C@@H]2CNCCN2c2cc(F)cc(C(F)F)c2O1` [Example 23, [(4aR,6S)-8-(Difluoromethyl)-10-fluoro-2,3,4,4a,5,6-hexahydro-1H-pyrazino[2,1-d][1,5]benzoxazepin-6-yl]methanol hydrochloride] are below 20 nM, above 70%, “+ (from 10 to 30)” and below 83.3 mL/min/kg.
The corresponding values for `COC[C@@H]1C[C@@H]2CNCCN2c2cc(Cl)cc(F)c2O1` [Example 25, (4aR,6S)-10-Chloro-8-fluoro-6-(methoxymethyl)-2,3,4,4a,5,6-hexahydro-1H-pyrazino[2,1-d][1,5]benzoxazepine] are 20 to 200 nM, above 70%, “+++ (>100)” and below 83.3 mL/min/kg.
Turning to `COC[C@@H]1C[C@@H]2CNCCN2c2nccc(C(F)F)c2O1.O=C(O)C(F)(F)F` [Example 27, (6S,7aR)-4-(Difluoromethyl)-6-(methoxymethyl)-7,7a,8,9,10,11-hexahydro-6H-pyrazino[1,2-d]pyrido[3,2-b][1,4]oxazepine; 2,2,2-trifluoroacetic acid], on 5-HT2C receptor, the EC50 fell in the range of 20 to 200 nM and the Emax was above 70%. Also, the “Selectivity over 5-HT2A” value at human 5-HT2A receptor is “++ (from >30 to 100)”. In addition, the CLint scaled at 0.5 μM in data set [1] (microsomes) was below 83.3 mL/min/kg.
`COC[C@@H]1C[C@@H]2CNCCN2c2cc(F)cc(C)c2O1.Cl` [Example 41, (4aR,6S)-10-Fluoro-6-(methoxymethyl)-8-methyl-2,3,4,4a,5,6-hexahydro-1H-pyrazino[2,1-d][1,5]benzoxazepine hydrochloride]: on 5-HT2C receptor, the EC50 is below 20 nM and the Emax is above 70%. At human 5-HT2A receptor, the “Selectivity over 5-HT2A” value was “+++ (>100)”. In addition, in data set [1] (liver microsomes), the CLint scaled at 0.5 μM is below 83.3 mL/min/kg.
The corresponding values for `COC[C@@H]1C[C@@H]2CNCCN2c2cccc(OC(F)F)c2O1` [Example 42, (4aR,6S)-8-(Difluoromethoxy)-6-(methoxymethyl)-2,3,4,4a,5,6-hexahydro-1H-pyrazino[2,1-d][1,5]benzoxazepine] are below 20 nM, above 70%, “+ (from 10 to 30)” and below 83.3 mL/min/kg.
Take `COC[C@@H]1C[C@@H]2CNCCN2c2cc(OC)cc(Cl)c2O1.Cl` [Example 44, (4aR,6S)-8-Chloro-10-methoxy-6-(methoxymethyl)-2,3,4,4a,5,6-hexahydro-1H-pyrazino[2,1-d][1,5]benzoxazepine hydrochloride]: on 5-HT2C receptor, the EC50 was in the range of 20 to 200 nM and the Emax was above 70%. The “Selectivity over 5-HT2B” value at human 5-HT2B receptor is listed as “++ (from >30 to 100)”. In data set [1] (liver microsomes), the CLint scaled at 0.5 μM is below 83.3 mL/min/kg.
Take `COC[C@@H]1C[C@@H]2CNCCN2c2cccc(C3CC3)c2O1.Cl` [Example 48, (4aR,6S)-8-Cyclopropyl-6-(methoxymethyl)-2,3,4,4a,5,6-hexahydro-1H-pyrazino[2,1-d][1,5]benzoxazepine hydrochloride]: on 5-HT2C receptor, the EC50 was below 20 nM and the maximal response (Emax) was above 70%. Further, on human 5-HT2A receptor, the “Selectivity over 5-HT2A” value was “+ (from 10 to 30)”. The CLint scaled at 0.5 μM in data set [1] (liver microsomes) is below 83.3 mL/min/kg.
On to `COC[C@@H]1C[C@@H]2CNCCN2c2cc(F)cc(C3CC3)c2O1.Cl` [Example 49, (4aR,6S)-8-Cyclopropyl-10-fluoro-6-(methoxymethyl)-2,3,4,4a,5,6-hexahydro-1H-pyrazino[2,1-d][1,5]benzoxazepine hydrochloride], for which, at 5-HT2C receptor, the EC50 was below 20 nM and the Emax was above 70%. Besides, the “Selectivity over 5-HT2A” value on human 5-HT2A receptor is on record as “++ (from >30 to 100)”. The CLint scaled at 0.5 μM in data set [1] (liver microsomes) was below 83.3 mL/min/kg.
For `COC[C@@H]1C[C@@H]2CNCCN2c2cccc(F)c2O1.Cl` [Example 50, (4aR,6S)-8-Fluoro-6-(methoxymethyl)-2,3,4,4a,5,6-hexahydro-1H-pyrazino[2,1-d][1,5]benzoxazepine hydrochloride], on 5-HT2C receptor, the EC50 lay within 20 to 200 nM and the Emax is above 70%. The “Selectivity over 5-HT2A” value on human 5-HT2A receptor is “++ (from >30 to 100)”. Moreover, the CLint scaled at 0.5 μM in data set [1] (liver microsomes) was below 83.3 mL/min/kg.
